Test results taken from PubChem BioAssay (NCI).
“And” between values parts separate entries of the source, which are not always exact repeats. Identical values can stand only once.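 Values below derive from 48-hour exposures of cells grown in 96-well plates, with endpoints linearly interpolated between the two concentrations bracketing the appropriate inhibition level. GI50 is the concentration that inhibits growth by half. TGI: concentration producing complete growth inhibition.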

Tests used:
Assay in all cases: NCI tumour cell line growth inhibition, 48 h
NCI-H23 lung = tested on: NCI-H23 lung
786-0 renal = tested on: 786-0 renal
SK-OV-3 ovarian = tested on: SK-OV-3 ovarian
MOLT-4 leukemia = tested on: MOLT-4 leukemia
EKVX NSCLC = tested on: EKVX NSCLC
OVCAR-8 ovarian = tested on: OVCAR-8 ovarian
MDA-N = tested on: MDA-N
OVCAR-3 ovarian = tested on: OVCAR-3 ovarian
BT-549 breast = tested on: BT-549 breast
HCT-116 colon = tested on: HCT-116 colon

Compound	TGI (NCI-H23 lung)	TGI (786-0 renal)	TGI (SK-OV-3 ovarian)	TGI (MOLT-4 leukemia)	TGI (EKVX NSCLC)	TGI (OVCAR-8 ovarian)	TGI (MDA-N)	TGI (OVCAR-3 ovarian)	TGI (BT-549 breast)	TGI (HCT-116 colon)	GI50 (NCI-H23 lung)	GI50 (MOLT-4 leukemia)	GI50 (EKVX NSCLC)	GI50 (OVCAR-8 ovarian)	GI50 (MDA-N)	GI50 (OVCAR-3 ovarian)	GI50 (BT-549 breast)	GI50 (HCT-116 colon)
COc1cc2c(cc1Cc1c(F)cccc1Cl)nc(-c1c(F)cccc1Cl)n2Cc1c(F)cccc1Cl	> 100 µM	64.2 µM	70 µM	> 100 µM	69.7 µM	> 100 µM	> 100 µM	> 100 µM	> 100 µM	> 100 µM	–	–	–	–	–	–	–	–
CSc1n[nH]c(N)c1C(=O)Nc1ccccc1	> 100 µM	> 100 µM	> 100 µM	> 100 µM	> 100 µM	> 100 µM	> 100 µM	> 100 µM	> 100 µM	> 100 µM	–	–	–	–	–	–	–	–
O=[N+]([O-])c1ccc2c(c1)C1=NN(c3ccccc3)C(c3ccccc3Br)C1CCC2 (stereo not drawn)	> 50 µM	> 50 µM	> 50 µM	> 50 µM	> 50 µM	> 50 µM	> 50 µM	> 50 µM	35 µM	> 50 µM	–	–	–	–	–	–	–	–
CO[C@@H]1O[C@H](C(=O)c2ccccc2)[C@H]2OC(C)(C)O[C@@H]12	> 100 µM	> 100 µM	> 100 µM	> 100 µM	> 100 µM	> 100 µM	> 100 µM	> 100 µM	> 100 µM	> 100 µM	–	–	–	–	–	–	–	–
N#Cc1c(-c2ccccc2)cc(-c2ccc(Cl)cc2)[nH]c1=S	38.2 µM	> 100 µM	77.6 µM	> 100 µM	70.4 µM	> 100 µM	> 100 µM	> 100 µM	> 100 µM	> 100 µM	–	–	–	–	–	–	–	–
O=C1CSC2=NC3=C(COC/C3=C\c3ccc(Br)cc3)C(c3ccc(Br)cc3)N12 (stereo not drawn)	> 100 µM	> 100 µM	> 100 µM	64.2 µM	> 100 µM	> 100 µM	> 100 µM	> 100 µM	> 100 µM	> 100 µM	–	–	–	–	–	–	–	–
[O-]/[N+](=C\c1ccccc1OC(=S)S)c1ccc(Cl)cc1	> 100 µM	50.3 µM	> 100 µM	> 100 µM	> 100 µM	30.2 µM	> 100 µM	> 100 µM	> 100 µM	72.7 µM	–	–	–	–	–	–	–	–
Cc1c2c(OCC3CCCCO3)nn(C)c(=O)c2c(C)n1-c1ccccc1 (stereo not drawn)	44.2 µM	33.9 µM	34.8 µM	> 100 µM	33.2 µM	42.2 µM	35.8 µM	33.3 µM	38.2 µM	31.6 µM	–	–	–	–	–	–	–	–
NC(=O)N/N=C1\CC2C3CC4C2C4C13 (stereo not drawn)	> 100 µM	> 100 µM	> 100 µM	> 100 µM	> 100 µM	> 100 µM	> 100 µM	> 100 µM	> 100 µM	> 100 µM	–	–	–	–	–	–	–	–
COc1cc(/C=C/C=C2\CC/C(=C\C=C\c3ccc(O)c(OC)c3)C2=O)ccc1O	> 100 µM	> 100 µM	> 100 µM	22.2 µM	> 100 µM	> 100 µM	> 100 µM	> 100 µM	> 100 µM	> 100 µM	–	–	–	–	–	–	–	–
CCCCCCCCCc1nn2c(Cc3ccccc3)nnc2s1	38.8 µM	34.7 µM	66.7 µM	59.3 µM	29.6 µM	29.8 µM	38.7 µM	37 µM	33.6 µM	31.9 µM	–	–	–	–	–	–	–	–
CCOC(=O)/C=C(\C(=O)OCC)n1ccc(=O)n(Cc2cn(COCCOC(C)=O)nn2)c1=O	32.6 µM	32.9 µM	> 100 µM	39.3 µM	38.9 µM	31.1 µM	> 100 µM	48 µM	33.2 µM	33 µM	–	–	–	–	–	–	–	–
O=c1[nH]c(=O)n(C2CC(O)C(CO)O2)cc1OCc1ccccc1 (stereo not drawn)	> 100 µM	> 100 µM	> 100 µM	> 100 µM	> 100 µM	> 100 µM	> 100 µM	> 100 µM	> 100 µM	> 100 µM	–	–	–	–	–	–	–	–
O=C(N/N=C/c1ccc(Br)cc1)N/N=C/c1ccc(Br)cc1	> 100 µM	13.4 µM	7.96 µM	30.2 µM	31.3 µM	19.8 µM	37.5 µM	14.9 µM	52.9 µM	> 100 µM	–	–	–	–	–	–	–	–
C=C(CN(C)C)C(=O)c1ccccc1[N+](=O)[O-]	32.7 µM and 66.1 µM	27 µM	> 86.8 µM	26.7 µM and 5.83 µM	> 59.3 µM and 49 µM	40.9 µM and 32 µM	27.9 µM and 25.3 µM	37 µM and 40.7 µM	30.6 µM and 60.4 µM	31.6 µM and 38.3 µM	20.7 µM	4.01 µM and 0.606 µM	23 µM	6.55 µM	10.6 µM	14.7 µM	24.3 µM	7.18 µM
O=C1c2ccccc2NC(=S)[C@@H]2CCCN12	> 100 µM	> 100 µM	> 100 µM	> 100 µM	> 100 µM	> 100 µM	> 100 µM	> 100 µM	> 100 µM	> 100 µM	–	–	–	–	–	–	–	–
CC(=O)c1ccc2c(c1)CC1(C2)Cc2ccccc2C1=O (stereo not drawn)	> 100 µM	> 100 µM	> 100 µM	> 100 µM	> 100 µM	> 100 µM	> 100 µM	> 100 µM	> 100 µM	> 100 µM	–	–	–	–	–	–	–	–
CCOC(=O)C#Cc1ccccc1	34.7 µM	21.5 µM	89.6 µM	12.8 µM	10.9 µM	> 100 µM	45 µM	45.7 µM	79.5 µM	17.7 µM	–	–	–	–	–	–	–	–
COC1CC(OC2CCC3(C)C(=CCC4C3C(OC(C)=O)C(OC(=O)CC(C)C)C3(C)C(C(C)=O)CCC43O)C2)OC(C)C1OC1CC(OC)C(OC2CC(OC)C(OC3OC(C)C(OC4OC(CO)C(O)C(O)C4O)C(OC)C3O)C(C)O2)C(C)O1 (stereo not drawn)	> 75 µM	> 75 µM	> 75 µM	> 75 µM	> 75 µM	> 75 µM	> 75 µM	> 75 µM	> 75 µM	> 75 µM	–	–	–	–	–	–	–	–
COc1nc(C#CC(C)(C)C)nc(OC)n1	68.5 µM	> 100 µM	> 100 µM	> 100 µM	> 100 µM	37.6 µM	> 100 µM	77.3 µM	> 100 µM	> 100 µM	–	–	–	–	–	–	–	–
CC12CCCC3(CC(=O)C(C)(C)C3C(=O)C1)C2 (stereo not drawn)	> 100 µM	> 100 µM	> 100 µM	> 100 µM	> 100 µM	> 100 µM	> 100 µM	> 100 µM	> 100 µM	> 100 µM	–	–	–	–	–	–	–	–
C[n+]1c(-c2ccc(/C=C/C=N\NC(=O)c3ccc(C(=O)N/N=C\C=C\c4ccc(-c5cn6ccccc6[n+]5C)cc4)cc3)cc2)cn2ccccc21	> 100 µM	> 56.2 µM	> 100 µM	> 100 µM	> 100 µM	> 100 µM	> 100 µM	> 100 µM	> 100 µM	> 100 µM	–	–	–	–	–	–	–	–
S=c1cc(-c2ccc3c(c2)OCO3)s[nH]1	> 100 µM	> 100 µM	> 100 µM	> 100 µM	> 100 µM	> 100 µM	> 100 µM	> 100 µM	> 100 µM	> 100 µM	–	–	–	–	–	–	–	–
CCOP(=O)(/C=C\n1ccc(N)nc1=O)OCC	> 100 µM	> 100 µM	> 100 µM	> 100 µM	> 100 µM	> 100 µM	> 100 µM	> 100 µM	> 100 µM	> 100 µM	–	–	–	–	–	–	–	–
COc1ccc(-c2cc(-c3ccccc3)[nH]c(=S)c2C#N)cc1	52.3 µM	86.3 µM	93.6 µM	> 100 µM	> 100 µM	90.5 µM	> 100 µM	38.3 µM	> 100 µM	> 100 µM	–	–	–	–	–	–	–	–
CC(C(=O)O)C(C)(O)C(=O)O (stereo not drawn)	> 100 µM	> 100 µM	> 100 µM	> 100 µM	> 100 µM	> 100 µM	> 100 µM	> 100 µM	> 100 µM	> 100 µM	–	–	–	–	–	–	–	–
O=c1[nH]c(Nc2cccc(CO)c2)nc2nc[nH]c12	> 100 µM	> 100 µM	> 100 µM	> 100 µM	> 100 µM	> 100 µM	> 100 µM	> 100 µM	> 100 µM	> 100 µM	–	–	–	–	–	–	–	–
CCOC(=O)c1cn2c(n1)sc1cc(Cl)cc(Cl)c12	> 100 µM	> 100 µM	> 100 µM	> 100 µM	> 100 µM	> 100 µM	> 100 µM	> 100 µM	> 100 µM	> 100 µM	–	–	–	–	–	–	–	–
COC(=O)C1(Cc2ccc3c(c2)CCC3)Cc2ccccc2C1	> 100 µM	> 100 µM	> 100 µM	31 µM	> 100 µM	> 100 µM	> 100 µM	> 100 µM	> 100 µM	> 100 µM	–	–	–	–	–	–	–	–
